Assays:
Test in all cases: KinaseProfiler kinase assay
Assay type in all cases: biochemical
[1] = target: PI3 Kinase (p110δ/p85α)(m) (Mus musculus, UniProt O35904)
How it was run: (§1)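 Each enzyme was assayed radiometrically: 40 min room-temperature reaction with [γ-33P]ATP and 10 mM Mg acetate, acid-stopped, filtered, scintillation-counted.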

[2] = target: BrSK1(h) (Homo sapiens, UniProt Q8TDC3)
How it was run: as §1

[3] = target: PKCε(h) (Homo sapiens, UniProt Q02156)
How it was run: as §1

[4] = target: c-RAF(h) (Homo sapiens, UniProt P04049, Y340D/Y341D)
How it was run: as §1

[5] = target: MKK7β(h) (Homo sapiens, UniProt O14733)
How it was run: as §1

[6] = target: Snk(h) (Homo sapiens, UniProt Q9NYY3)
Snk(h), sequence (Q9NYY3 whole entry): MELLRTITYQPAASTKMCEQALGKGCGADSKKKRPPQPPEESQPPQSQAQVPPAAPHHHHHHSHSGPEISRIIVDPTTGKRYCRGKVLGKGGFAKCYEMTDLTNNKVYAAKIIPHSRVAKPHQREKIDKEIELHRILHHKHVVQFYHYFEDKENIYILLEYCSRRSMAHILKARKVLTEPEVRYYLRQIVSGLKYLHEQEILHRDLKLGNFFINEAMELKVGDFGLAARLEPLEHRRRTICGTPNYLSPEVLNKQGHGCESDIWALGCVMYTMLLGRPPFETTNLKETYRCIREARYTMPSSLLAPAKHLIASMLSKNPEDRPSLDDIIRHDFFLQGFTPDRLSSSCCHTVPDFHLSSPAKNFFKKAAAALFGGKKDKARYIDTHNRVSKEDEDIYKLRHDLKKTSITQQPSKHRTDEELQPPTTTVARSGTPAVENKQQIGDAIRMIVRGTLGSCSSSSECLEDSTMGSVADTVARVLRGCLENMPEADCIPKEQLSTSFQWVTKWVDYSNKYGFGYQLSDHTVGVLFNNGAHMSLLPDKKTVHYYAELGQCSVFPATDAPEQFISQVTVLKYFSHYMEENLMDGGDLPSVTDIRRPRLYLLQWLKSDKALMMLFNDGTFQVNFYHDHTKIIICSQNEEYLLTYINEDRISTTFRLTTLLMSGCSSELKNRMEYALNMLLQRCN
How it was run: as §1

[7] = target: IRR(h) (Homo sapiens, UniProt P14616)
IRR(h), sequence (P14616 27-1297): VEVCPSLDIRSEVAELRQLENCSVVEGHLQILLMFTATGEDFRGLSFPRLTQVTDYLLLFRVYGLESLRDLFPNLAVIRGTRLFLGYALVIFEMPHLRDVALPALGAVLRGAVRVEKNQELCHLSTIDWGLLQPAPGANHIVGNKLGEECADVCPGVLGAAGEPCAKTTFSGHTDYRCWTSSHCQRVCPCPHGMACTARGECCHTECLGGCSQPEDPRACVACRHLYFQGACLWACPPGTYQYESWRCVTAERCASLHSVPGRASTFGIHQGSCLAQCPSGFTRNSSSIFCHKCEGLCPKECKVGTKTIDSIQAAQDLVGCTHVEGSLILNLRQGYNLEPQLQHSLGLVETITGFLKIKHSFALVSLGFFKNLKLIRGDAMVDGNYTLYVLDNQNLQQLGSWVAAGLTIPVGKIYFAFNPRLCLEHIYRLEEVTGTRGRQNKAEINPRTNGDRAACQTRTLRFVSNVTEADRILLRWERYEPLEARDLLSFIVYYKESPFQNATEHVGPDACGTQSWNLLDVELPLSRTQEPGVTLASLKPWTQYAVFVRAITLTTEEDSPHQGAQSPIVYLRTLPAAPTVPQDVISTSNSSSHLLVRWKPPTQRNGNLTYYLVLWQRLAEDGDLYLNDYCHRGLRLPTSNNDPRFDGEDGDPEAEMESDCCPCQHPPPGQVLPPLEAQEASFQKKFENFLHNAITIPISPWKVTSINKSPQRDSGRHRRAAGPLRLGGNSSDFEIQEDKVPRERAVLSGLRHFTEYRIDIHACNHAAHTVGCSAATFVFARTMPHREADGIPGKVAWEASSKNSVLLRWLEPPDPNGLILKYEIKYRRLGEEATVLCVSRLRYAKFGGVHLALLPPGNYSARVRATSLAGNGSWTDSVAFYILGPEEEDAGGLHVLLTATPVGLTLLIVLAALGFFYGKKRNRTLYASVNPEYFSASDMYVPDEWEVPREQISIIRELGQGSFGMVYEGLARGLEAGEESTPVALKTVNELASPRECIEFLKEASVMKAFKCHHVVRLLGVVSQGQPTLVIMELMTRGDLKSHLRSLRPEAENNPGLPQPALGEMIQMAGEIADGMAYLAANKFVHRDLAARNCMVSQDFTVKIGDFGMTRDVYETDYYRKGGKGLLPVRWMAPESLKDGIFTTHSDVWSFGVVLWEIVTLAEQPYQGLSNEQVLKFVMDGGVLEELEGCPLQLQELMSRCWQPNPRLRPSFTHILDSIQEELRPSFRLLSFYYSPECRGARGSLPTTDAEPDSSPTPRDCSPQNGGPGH
How it was run: as §1

[8] = target: FGFR2(N549H)(h) (Homo sapiens, UniProt P21802, N549H)
How it was run: as §1

[9] = target: Arg(h) (Homo sapiens, UniProt P42684)
How it was run: as §1

[10] = target: GRK7(h) (Homo sapiens, UniProt Q8WTQ7)
How it was run: as §1

[11] = target: CDK7/cyclinH/MAT1(h) (Homo sapiens, UniProt P50613)
How it was run: as §1

[12] = target: EphB1(h) (Homo sapiens, UniProt P54762)
How it was run: as §1

[13] = target: JAK2(h) (Homo sapiens, UniProt O60674)
How it was run: as §1

[14] = target: PKCδ(h) (Homo sapiens, UniProt Q05655)
How it was run: as §1

[15] = target: EGFR(h) (Homo sapiens, UniProt P00533)
How it was run: as §1

[16] = target: IGF-1R(h), activated (Homo sapiens, UniProt P08069)
IGF-1R(h), activated, sequence (P08069 959-1367): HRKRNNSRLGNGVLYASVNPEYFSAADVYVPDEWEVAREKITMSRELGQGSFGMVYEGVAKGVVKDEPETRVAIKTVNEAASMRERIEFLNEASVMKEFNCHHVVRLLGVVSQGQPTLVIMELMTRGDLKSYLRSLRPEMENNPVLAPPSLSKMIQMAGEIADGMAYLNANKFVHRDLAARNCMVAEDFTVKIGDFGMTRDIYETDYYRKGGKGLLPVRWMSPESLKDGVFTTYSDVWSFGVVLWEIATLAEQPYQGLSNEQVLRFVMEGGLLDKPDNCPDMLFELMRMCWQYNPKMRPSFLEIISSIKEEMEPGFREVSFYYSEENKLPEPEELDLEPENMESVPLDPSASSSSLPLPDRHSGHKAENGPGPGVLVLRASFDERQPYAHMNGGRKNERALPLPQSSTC
How it was run: as §1

[17] = target: TAK1(h) (Homo sapiens, UniProt O43318)
How it was run: as §1

[18] = target: WNK2(h) (Homo sapiens, UniProt Q9Y3S1)
How it was run: as §1

[19] = target: PKCζ(h) (Homo sapiens, UniProt Q05513)
How it was run: as §1

[20] = target: SGK3(h) (Homo sapiens, UniProt Q96BR1)
SGK3(h), sequence (Q96BR1 whole entry): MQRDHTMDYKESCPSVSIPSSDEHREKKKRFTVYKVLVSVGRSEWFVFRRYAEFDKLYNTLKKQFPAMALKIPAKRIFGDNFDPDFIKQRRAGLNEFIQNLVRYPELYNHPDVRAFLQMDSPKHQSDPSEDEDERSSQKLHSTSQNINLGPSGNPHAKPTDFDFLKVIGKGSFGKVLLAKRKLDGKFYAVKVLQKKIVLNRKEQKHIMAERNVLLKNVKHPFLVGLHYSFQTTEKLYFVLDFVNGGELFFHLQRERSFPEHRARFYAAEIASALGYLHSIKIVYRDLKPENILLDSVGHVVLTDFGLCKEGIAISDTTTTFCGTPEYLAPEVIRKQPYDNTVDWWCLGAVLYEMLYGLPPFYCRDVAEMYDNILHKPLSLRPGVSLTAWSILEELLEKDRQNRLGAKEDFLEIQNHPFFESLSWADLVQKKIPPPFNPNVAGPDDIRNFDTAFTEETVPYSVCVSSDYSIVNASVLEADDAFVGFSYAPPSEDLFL
How it was run: as §1

[21] = target: GSK3β(h) (Homo sapiens, UniProt P49841)
How it was run: as §1

[22] = target: Plk3(h) (Homo sapiens, UniProt Q9H4B4)
Plk3(h), sequence (Q9H4B4 whole entry): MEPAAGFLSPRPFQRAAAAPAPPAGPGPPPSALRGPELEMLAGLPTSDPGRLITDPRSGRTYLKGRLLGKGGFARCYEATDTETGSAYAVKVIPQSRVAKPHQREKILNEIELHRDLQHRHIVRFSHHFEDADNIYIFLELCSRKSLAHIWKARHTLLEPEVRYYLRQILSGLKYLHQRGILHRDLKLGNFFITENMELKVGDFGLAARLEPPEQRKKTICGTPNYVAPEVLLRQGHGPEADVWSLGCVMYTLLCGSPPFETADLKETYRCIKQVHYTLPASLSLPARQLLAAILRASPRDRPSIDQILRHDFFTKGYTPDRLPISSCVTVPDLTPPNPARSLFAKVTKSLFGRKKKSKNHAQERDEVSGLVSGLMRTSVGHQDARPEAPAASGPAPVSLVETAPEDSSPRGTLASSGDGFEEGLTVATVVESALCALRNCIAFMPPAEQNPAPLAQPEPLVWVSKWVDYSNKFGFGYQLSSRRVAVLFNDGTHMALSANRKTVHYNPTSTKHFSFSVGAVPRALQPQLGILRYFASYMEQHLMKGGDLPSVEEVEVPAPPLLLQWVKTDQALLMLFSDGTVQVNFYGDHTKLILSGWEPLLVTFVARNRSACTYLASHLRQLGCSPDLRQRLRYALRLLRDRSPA
How it was run: as §1

[23] = target: IKKβ(h) (Homo sapiens, UniProt O14920)
How it was run: as §1

[24] = target: NEK6(h) (Homo sapiens, UniProt Q9HC98)
How it was run: as §1

[25] = target: PKCα(h) (Homo sapiens, UniProt P17252)
How it was run: as §1

[26] = target: PKCι(h) (Homo sapiens, UniProt P41743)
PKCι(h), sequence (P41743 whole entry): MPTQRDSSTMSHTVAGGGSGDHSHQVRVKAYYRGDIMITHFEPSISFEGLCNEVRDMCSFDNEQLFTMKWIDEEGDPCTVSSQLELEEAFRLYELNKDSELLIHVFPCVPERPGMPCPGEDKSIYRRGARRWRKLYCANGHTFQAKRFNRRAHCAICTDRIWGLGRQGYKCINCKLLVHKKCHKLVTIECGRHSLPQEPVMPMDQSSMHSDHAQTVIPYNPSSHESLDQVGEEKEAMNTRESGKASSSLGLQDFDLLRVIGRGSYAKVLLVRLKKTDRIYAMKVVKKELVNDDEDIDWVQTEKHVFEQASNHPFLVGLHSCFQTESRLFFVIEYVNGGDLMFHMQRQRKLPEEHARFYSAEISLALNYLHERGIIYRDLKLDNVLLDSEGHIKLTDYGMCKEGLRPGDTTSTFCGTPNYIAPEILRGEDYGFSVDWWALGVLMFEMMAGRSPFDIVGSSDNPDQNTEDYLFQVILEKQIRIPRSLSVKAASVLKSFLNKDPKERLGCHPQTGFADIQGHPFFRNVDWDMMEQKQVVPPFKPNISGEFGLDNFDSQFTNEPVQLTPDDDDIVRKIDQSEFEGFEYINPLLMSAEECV
How it was run: as §1

[27] = target: PI3 Kinase (p110δ/p85α)(h) (Homo sapiens, UniProt O00329)
How it was run: as §1

[28] = target: EphA2(h) (Homo sapiens, UniProt P29317)
How it was run: as §1

[29] = target: cKit(V560G)(h) (Homo sapiens, UniProt P10721, V560G)
How it was run: as §1

[30] = target: Fms(Y969C)(h) (Homo sapiens, UniProt P07333, Y969C)
How it was run: as §1

[31] = target: Pim-3(h) (Homo sapiens, UniProt Q86V86)
How it was run: as §1

SMILES: Cc1cc2c(F)c(Oc3nc(Nc4cc(C5CC5)[nH]n4)cc(N4CCN(C)CC4)n3)ccc2[nH]1 [Compound 10]
- inhibition at 0.1 µM [1]: -19%
- inhibition at 0.1 µM [2]: 47%
- inhibition at 0.1 µM [3]: -10%
- inhibition at 0.1 µM [4]: 6%
- inhibition at 0.1 µM [5]: -26%
- inhibition at 0.1 µM [6]: 9%
- inhibition at 0.1 µM [7]: 91%
- inhibition at 0.1 µM [8]: 100%
- inhibition at 0.1 µM [9]: 104%
- inhibition at 0.1 µM [10]: -4%
- inhibition at 0.1 µM [11]: 44%
- inhibition at 0.1 µM [12]: 101%
- inhibition at 0.1 µM [13]: 92%
- inhibition at 0.1 µM [14]: 5%
- inhibition at 0.1 µM [15]: -8%
- inhibition at 0.1 µM [16]: 59%
- inhibition at 0.1 µM [17]: 38%
- inhibition at 0.1 µM [18]: -8%
- inhibition at 0.1 µM [19]: -7%
- inhibition at 0.1 µM [20]: -5%
- inhibition at 0.1 µM [21]: -15%
- inhibition at 0.1 µM [22]: 1%
- inhibition at 0.1 µM [23]: 1%
- inhibition at 0.1 µM [24]: -11%
- inhibition at 0.1 µM [25]: 4%
- inhibition at 0.1 µM [26]: 0%
- inhibition at 0.1 µM [27]: 2%
- inhibition at 0.1 µM [28]: 96%
- inhibition at 0.1 µM [29]: 89%
- inhibition at 0.1 µM [30]: 67%
- inhibition at 0.1 µM [31]: -1%

SMILES: Cc1cc2c(F)c(Oc3nc(Nc4cc(C5CC5)[nH]n4)cc(N4CCNCC4)n3)ccc2[nH]1 [Compound 11, N-(5-cyclopropyl-1H-pyrazol-3-yl)-2-((4-fluoro-2-methyl-1H-indol-5-yl)oxy)-6-(piperazin-1-yl)pyrimidin-4-amine]
- inhibition at 0.1 µM [1]: 6%
- inhibition at 0.1 µM [2]: 40%
- inhibition at 0.1 µM [3]: 17%
- inhibition at 0.1 µM [4]: 1%
- inhibition at 0.1 µM [5]: -16%
- inhibition at 0.1 µM [6]: 5%
- inhibition at 0.1 µM [7]: 95%
- inhibition at 0.1 µM [8]: 100%
- inhibition at 0.1 µM [9]: 102%
- inhibition at 0.1 µM [10]: 0%
- inhibition at 0.1 µM [11]: 26%
- inhibition at 0.1 µM [12]: 100%
- inhibition at 0.1 µM [13]: 99%
- inhibition at 0.1 µM [14]: 5%
- inhibition at 0.1 µM [15]: -6%
- inhibition at 0.1 µM [16]: 65%
- inhibition at 0.1 µM [17]: 44%
- inhibition at 0.1 µM [18]: -6%
- inhibition at 0.1 µM [19]: -14%
- inhibition at 0.1 µM [20]: 4%
- inhibition at 0.1 µM [21]: 19%
- inhibition at 0.1 µM [22]: 1%
- inhibition at 0.1 µM [23]: 5%
- inhibition at 0.1 µM [24]: -11%
- inhibition at 0.1 µM [25]: -3%
- inhibition at 0.1 µM [26]: -10%
- inhibition at 0.1 µM [27]: -1%
- inhibition at 0.1 µM [28]: 98%
- inhibition at 0.1 µM [29]: 94%
- inhibition at 0.1 µM [30]: 73%
- inhibition at 0.1 µM [31]: -4%

— patent US10245261B2, “Substituted indol-5-ol derivatives and their therapeutic applications” (NantBioScience, Inc., priority 2013, dated 2019)
